{"source": "paper PMC7392676", "about": "(BMC Microbiology, 2020)", "key": {"[1]": {"system": "Xf", "details": "cited from earlier work"}, "[2]": {"system": "Erwinia amylovora", "details": "cited from earlier work"}, "[3]": {"system": "Xanthomonas axonopodis pv. vesicatoria", "details": "cited from earlier work"}, "[4]": {"system": "Pseudomonas syringae pv. syringae", "details": "cited from earlier work"}, "[5]": {"system": "Xff strain Temecula", "format": "cell-based, Xylella fastidiosa subsp. fastidiosa"}}, "data": [{"substance": "dermaseptin", "values": [{"measurement": "MIC or MBC against Xf", "setting": "[1]", "result": "8 to 32", "unit": "mg/L"}]}, {"substance": "magainin II", "values": [{"measurement": "MIC or MBC against Xf", "setting": "[1]", "result": "8 to 64", "unit": "mg/L"}]}, {"substance": "gomesin", "values": [{"measurement": "MIC or MBC against Xf", "setting": "[1]", "result": "4.5 to 9", "unit": "mg/L"}]}, {"substance": "KDWEHLKDWEHLKDWEHL-OH [tag54]", "values": [{"measurement": "MIC Ea", "setting": "[2]", "result": "> 100", "unit": "µM"}, {"measurement": "MIC Xav", "setting": "[3]", "result": "> 100", "unit": "µM"}, {"measurement": "MIC Psa", "setting": "[4]", "result": "> 100", "unit": "µM"}, {"measurement": "Log N0/N (log reduction of Xff cell viability)", "setting": "[5]", "result": "0 ± 0", "unit": "log"}, {"measurement": "antimicrobial activity against Xff cells (in words)", "setting": "[5]", "result": "did not show antimicrobial activity"}]}]}
